We go through eight compounds from patent publication US6716628B2, “Chondrogenesis promoters and indolin-2-one derivatives” (Chugai Seiyaku Kabushiki Kaisha, priority 1999, dated 2004).

Series [1] deals with common mouse chondrocyte and adipocyte precursor cell line (CL-1). Put plainly: Uptake of 35S-labeled sulfuric acid into CL-1. It is filed as cell-based. Particulars: 10 μmol/L (A and F also 1 or 5 μmol/L), 48 h culture.
Series [2] shares this test system. Put plainly: Uptake of 35S-labeled sulfuric acid into CL-1. It is filed as cell-based. As to conditions: 10 μmol/L (A and F also 1 or 5 μmol/L), 48 h culture, uptake in final 24 h. On the procedure:
The above-mentioned cell line CL-1 was cultured in a 96-well cell culturing plate (Wallac Corp.) for a liquid scintillation counter (Wallac Corp.) to a cell density of 1000 per well. The medium used was α-MEM (GIBCO Corp.) containing 100 U/mL of penicillin (Meiji Seika Co., Ltd.), 100 μg/mL of streptomycin (Banyu Pharmaceutical Corp.) and 10% fetal bovine serum (INTERGEN Corp.). When the CL-1 cells reached confluency, the medium was exchanged with one containing 10 μmol/L of compounds A, B, C, D, E, F and G, and after 24 hours, ^35S-labeled sulfuric acid was added at 0.5 μCi per well and culturing was continued. For compounds A and F, a medium was also prepared with a concentration of 1 or 5 μmol/L. After 24 hours, the medium was discarded and the cell layer was fixed for 2 hours at room temperature using 0.2 mL of 5% paraformaldehyde (0.1 mol/L phosphate buffer solution (pH 7.4, Wako Pure Chemical Industries) containing 0.4% cetylpyridinium chloride (Wako Pure Chemical Industries). After discarding the fixing solution, it was washed once with the same solution and the washed solution was discarded. After adding 0.1 mL of scintillator (Wallac Corp.) to the cell layer and stirring, the radioactivity was measured with a scintillation counter (Wallac Corp.).

Series [3] concerns experimental animal models with induced arthritis. Particulars: administered intraarticularly; Lab. Invest. 78(2):133-142, 1998; cited from earlier work.
The subject of another series is articular cartilage. As to conditions: cited from earlier work.

Regarding `Cc1ccc(NC(=O)C[C@]2(NC(=O)Nc3ccc(C)cc3)C(=O)N(CC(OCCF)OCCF)c3ccccc32)cc1` [Compound F], the “differentiation of CL-1 to adipocytes” value in series [1] is reported as “clearly suppress”. In addition, in series [2], the “differentiation of CL-1 to chondrocytes (from 35S-labeled sulfuric acid uptake)” value (“differentiation of CL-1 to chondrocytes” below) was “clearly promote”.

For “3R)-1-(2,2-diisopropoxyethyl)-3-((4-methylphenyl) aminocarbonylmethyl)-3-(N′-(4-methylphenyl)ureido)indolin-2-one [Compound E]”, the “differentiation of CL-1 to adipocytes” value in series [1] is “clearly suppress”. Moreover, the “differentiation of CL-1 to chondrocytes” value in series [2] is given as “clearly promote”.

In the case of `COC(CN1C(=O)C(CC(=O)Nc2ccc(C)cc2)(NC(=O)Nc2ccc(C)cc2)c2ccccc21)OC` (stereo not drawn) [Compound D], the “differentiation of CL-1 to adipocytes” value in series [1] was “clearly suppress”. Further, the “differentiation of CL-1 to chondrocytes” value in series [2] is listed as “clearly promote”.

Regarding `CCOC(CN1C(=O)[C@](CC(=O)Nc2ccc(N(C)C)cc2)(NC(=O)Nc2ccc(C)cc2)c2ccccc21)OCC` [Compound C], the “differentiation of CL-1 to adipocytes” value in series [1] is reported as “clearly suppress”. For the same compound, in series [2], the “differentiation of CL-1 to chondrocytes” value is reported as “clearly promote”.

“TGF-β1: one isoform of TGF-β (Transforming growth factor β)”: the “arthritis-induced loss of proteoglycans in articular cartilage” value in series [3] is on record as “suppresses”. In the series with articular cartilage (intraarticularly administered, Lab. Invest. 71(2):279-290, 1994), the chondrogenesis entry was “promote chondrogenesis”.

With TGF-β, in the series on articular cartilage (in vivo), the synovitis result is recorded as “provoke synovitis”.

For `Cc1ccc(NC(=O)C[C@]2(NC(=O)Nc3ccc(C)cc3)C(=O)N(CC(OCCCl)OCCCl)c3ccccc32)cc1` [Compound G, 3R)-1-(2,2-bis(2-chloroethoxy)ethyl)-3-((4-methylphenyl) 3-(N′-(4-methylphenyl)ureido)indolin-2-one], in series [1], the “differentiation of CL-1 to adipocytes” value is “clearly suppress”. In addition, the “differentiation of CL-1 to chondrocytes” value in series [2] is “clearly promote”.

On to `CCOC(CN1C(=O)[C@](CC(=O)Nc2ccc(CC)cc2)(NC(=O)Nc2ccc(C)cc2)c2ccccc21)OCC` [Compound B, (3R)-1-(2,2-diethoxyethyl)-3-(4-ethylphenyl)aminocarbonylmethyl-3-(N′-(4-methylphenyl)ureido)indolin-2-one], for which the “differentiation of CL-1 to adipocytes” value in series [1] is “clearly suppress”. Besides, the “differentiation of CL-1 to chondrocytes” value in series [2] is recorded as “clearly promote”.
